Source: PubChem BioAssay (NCI)
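A five-concentration, 48-hour dose response in 96-well plates underlies each endpoint, interpolated linearly between surrounding concentrations. The concentration for full growth arrest is given as TGI.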

How the values were obtained:
Test in all cases: NCI-60 cell line screen, 48 h
HOP-92 NSCLC = tested on: HOP-92 NSCLC
LOX IMVI melanoma = tested on: LOX IMVI melanoma
OVCAR-3 ovarian = tested on: OVCAR-3 ovarian
UO-31 renal = tested on: UO-31 renal
RXF 393 renal = tested on: RXF 393 renal
T-47D breast = tested on: T-47D breast
CCRF-CEM leukemia = tested on: CCRF-CEM leukemia
SNB-75 CNS = tested on: SNB-75 CNS
HOP-62 NSCLC = tested on: HOP-62 NSCLC
EKVX NSCLC = tested on: EKVX NSCLC

Structure (SMILES) | TGI (HOP-92 NSCLC) [µM] | TGI (LOX IMVI melanoma) [µM] | TGI (OVCAR-3 ovarian) [µM] | TGI (UO-31 renal) [µM] | TGI (RXF 393 renal) [µM] | TGI (T-47D breast) [µM] | TGI (CCRF-CEM leukemia) [µM] | TGI (SNB-75 CNS) [µM] | TGI (HOP-62 NSCLC) [µM] | TGI (EKVX NSCLC) [µM]
Nc1ncnc2c1ncn2C1OC(CO)C(O)C1NS(=O)(=O)c1ccccc1 (centres undefined) | > 100 | > 100 | > 100 | > 100 | > 100 | > 100 | > 100 | > 100 | > 100 | > 100
O=C(/C=C/c1ccc(OCc2ccccc2)cc1)NCc1ccc(C(=O)NCc2ccccc2)cc1 | > 100 | > 100 | > 100 | > 100 | > 100 | > 100 | > 100 | > 100 | > 100 | > 100
O=C(NNS(=O)(=O)c1ccc(Br)cc1)c1ccc(Cl)cc1NC(=O)C12CC3CC(CC(C3)C1)C2 | 27.3 | 28.4 | 26.5 | 24.2 | 31.6 | > 100 | 76.5 | 28 | 47.8 | 27.3
CCCCC(=C=C(C)CO)C1CCCN1C(=O)OC(C)(C)C (centres undefined) | 25.6 | 30.4 | 31.8 | 37.7 | 29.4 | > 100 | 33.2 | 53.4 | 39.1 | 44
C=C1C(=O)[C@]23C[C@H]1C[C@@H](O)[C@H]2[C@]1(COC3=O)[C@@H](OC(C)=O)CC[C@@](C)(COC(C)=O)[C@H]1C=O | 22.3 | > 50 | > 50 | > 50 | > 50 | 25.4 | 15.1 | > 50 | > 50 | > 50
O=S(c1ccccc1)C1CC2CC3(CCC21O)OCCO3 (centres undefined) | > 100 | > 100 | > 100 | > 100 | > 100 | > 100 | > 100 | > 100 | > 100 | > 100
COc1cc(S(=O)(=O)Nc2ccc(-c3csc(N4C(=O)C(Cl)C4c4cccc(Oc5ccccc5)c4)n3)cc2)ccc1Cl (centres undefined) | 37.4 | 4.89 | > 100 | 43.9 | 15.6 | 41.9 | > 100 | 45.8 | > 100 | 52
N#CCCN(CCC#N)c1ccc(/C=C2\SC(=S)NC2=O)cc1 | > 100 | > 100 | > 100 | > 100 | > 100 | > 100 | > 100 | > 100 | > 100 | > 100
Oc1cc(O)c2c(c1)O[C@H](c1cc(O)c(O)c(O)c1)[C@@H](O)C2 | > 10 | 37.9 | 46.6 | 35.9 | 30.7 | 68.7 | 43.4 | 38.7 | 34 | 94.9
C=CC(C)(C)C1(CC(OC)OC)C(=O)N(C)c2ccccc21 (centres undefined) | > 25 | > 25 | > 25 | > 25 | > 25 | > 25 | > 25 | > 25 | > 25 | > 25
C/C(=N/NC(=S)N(C)C)c1ccccc1O | > 100 | > 75.1 | > 26.3 | > 100 | > 100 | > 85.8 | 21 | 82.9 | > 100 | > 100
N#C/C(=C/n1c(=S)[nH]c2ccccc21)C(N)=O | > 100 | > 100 | > 100 | > 100 | > 100 | > 100 | > 100 | > 100 | > 100 | > 100
COc1ccc(OC)c(NC2=NCCO2)c1 | 77.4 | > 100 | > 100 | > 100 | > 100 | > 100 | > 100 | > 100 | > 100 | > 100
C/C(=N/NC(=S)Nc1cccc(Cl)c1)c1ccccn1 | 11.1 | 9.49 | 12.3 | 5.03 | 9.76 | 1.05 | > 15.9 | 11.7 | 3.5 | 3.33
c1ccc(C(c2cccc3c2ccc2ccccc23)C(c2ccccc2)c2cccc3c2ccc2ccccc23)cc1 (centres undefined) | > 100 | > 100 | > 100 | > 100 | > 100 | > 100 | > 100 | > 100 | > 100 | > 100
COc1cc(OCc2nc3cc(C(F)(F)F)ccc3nc2-c2ccccc2)cc(OC)c1OC | > 100 | > 100 | > 100 | > 100 | 65.8 | > 100 | > 100 | > 100 | – | > 100
CCNC(=O)NNc1ncnc2c1c(-c1ccc(Cl)cc1)cn2-c1ccc(C)cc1 | 34 | 36.4 | 33.6 | 28.3 | 33.1 | 49.6 | 43.1 | 38.9 | 35.2 | 65.4
COC1=CC(=O)c2c(cc(COP(N)(=O)N(CCCl)CCCl)n2C)C1=O (centres undefined) | 6.66 | 1.73 | 2.37 | 2.65 | 2.95 | 4.29 | 8 | 4.45 | 7.88 | 1.62
N/C(=N\NC(=O)c1nc2ccccc2s1)c1ccccn1 | > 100 | > 100 | > 100 | 15.8 | > 69 | > 100 | > 45.6 | > 45.1 | > 57.6 | > 63.6
COc1cc(NS(C)(=O)=O)ccc1NCc1cnc2ccc3[nH]cccc3c12 | 93.9 | 63.4 | 53.2 | 59 | 21.3 | 50.8 | 59.5 | 39.3 | 55.6 | 57.7
CC(C(=O)NCCNC(=O)CCC(=O)N(C)O)C(=O)NCCNC(=O)CCC(=O)N(C)O | > 100 | > 100 | > 100 | > 100 | > 100 | > 100 | > 100 | > 100 | > 100 | > 100
